Measured values from the supplement of paper PMC10307832.

How the values were obtained:
Assay in all cases: relative viability (nuclei count vs DMSO), 5 days (fraction); higher = more cells survive
[1] = compound: CN(C)CC1=CC(=CC=C1)N=C(C2=CC=CC=C2)C3=C(NC4=C3C=CC(=C4)C(=O)N(C)C)O + Cc1nc(Nc2ncc(C(=O)Nc3c(C)cccc3Cl)s2)cc(N2CCN(CCO)CC2)n1 [Dasatinib] (partner 0.075 µM)
In short: (§1)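 After 5 days of treatment, lung cancer cells in 1536-well plates were fixed and stained in a single step (final 0.05% Triton X-100, 1% formaldehyde, 1 ug/ml Hoechst) and their nuclei counted on 4× images. Treatment had been applied by pin tool the day after seeding as one drug alone or as a fixed anchor-drug dose with five library-drug doses (not always all listed) in √10 steps. Relative viability is the nuclei count of treated wells divided by that of vehicle wells, and values are medians of duplicate plates.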

[2] = compound: CN(C)CC1=CC(=CC=C1)N=C(C2=CC=CC=C2)C3=C(NC4=C3C=CC(=C4)C(=O)N(C)C)O + Nc1ncn([C@H]2C[C@H](O)[C@@H](CO)O2)c(=O)n1 [Decitabine] (partner 2 µM)
In short: as §1

[3] = compound: CN(C)CC1=CC(=CC=C1)N=C(C2=CC=CC=C2)C3=C(NC4=C3C=CC(=C4)C(=O)N(C)C)O + COc1cc2c(Oc3ccc(NC(=O)C4(C(=O)Nc5ccc(F)cc5)CC4)cc3F)ccnc2cc1OCCCN1CCOCC1 [Foretinib] (partner 0.25 µM)
In short: as §1

[4] = compound: CN(C)CC1=CC(=CC=C1)N=C(C2=CC=CC=C2)C3=C(NC4=C3C=CC(=C4)C(=O)N(C)C)O + CCNC(=O)c1noc(-c2cc(C(C)C)c(O)cc2O)c1-c1ccc(CN2CCOCC2)cc1 [Luminespib] (partner 0.01 µM)
In short: as §1

ChaGo-K-1 showed a relative viability ([1]; first compound 0.08 µM) of 0.579, a relative viability ([1]; first compound 0.253 µM) of 0.61 and a relative viability ([1]; first compound 0.8 µM) of 0.601. The relative viability ([1]; first compound 2.53 µM) was 0.567, the relative viability ([1]; first compound 8 µM) was 0.582 and the relative viability ([2]; first compound 0.08 µM) was 0.524. It also gave a relative viability ([2]; first compound 0.253 µM) of 0.516, a relative viability ([2]; first compound 0.8 µM) of 0.523 and a relative viability ([2]; first compound 2.53 µM) of 0.418. The relative viability ([2]; first compound 8 µM) was 0.485, the relative viability ([3]; first compound 0.08 µM) was 0.945 and the relative viability ([3]; first compound 0.253 µM) was 0.911. It also gave a relative viability ([3]; first compound 0.8 µM) of 1.04, a relative viability ([3]; first compound 2.53 µM) of 0.902 and a relative viability ([3]; first compound 8 µM) of 0.771. It also gave a relative viability ([4]; first compound 0.08 µM) of 0.688, a relative viability ([4]; first compound 0.253 µM) of 0.612 and a relative viability ([4]; first compound 0.8 µM) of 0.668. The relative viability ([4]; first compound 2.53 µM) was 0.529 and the relative viability ([4]; first compound 8 µM) was 0.598.
For EBC-1, the relative viability ([3]; first compound 0.08 µM) was 0.0943, the relative viability ([3]; first compound 0.253 µM) was 0.112 and the relative viability ([3]; first compound 0.8 µM) was 0.0994. For the same cell line, the relative viability ([3]; first compound 2.53 µM) was 0.103 and the relative viability ([3]; first compound 8 µM) was 0.107.
EKVX was tested, and the relative viability ([1]; first compound 0.08 µM) was 0.523, the relative viability ([1]; first compound 0.253 µM) was 0.465 and the relative viability ([1]; first compound 0.8 µM) was 0.56. The relative viability ([1]; first compound 2.53 µM) was 0.535, the relative viability ([1]; first compound 8 µM) was 0.573 and the relative viability ([2]; first compound 0.08 µM) was 0.41. For the same cell line, the relative viability ([2]; first compound 0.253 µM) was 0.321, the relative viability ([2]; first compound 2.53 µM) was 0.36 and the relative viability ([2]; first compound 8 µM) was 0.34. The relative viability ([3]; first compound 0.08 µM) was 0.88, the relative viability ([3]; first compound 0.253 µM) was 1.06 and the relative viability ([3]; first compound 0.8 µM) was 0.555. The relative viability ([3]; first compound 2.53 µM) was 0.776, the relative viability ([3]; first compound 8 µM) was 0.804 and the relative viability ([4]; first compound 0.08 µM) was 0.864. The relative viability ([4]; first compound 0.253 µM) was 0.921, the relative viability ([4]; first compound 0.8 µM) was 1 and the relative viability ([4]; first compound 2.53 µM) was 0.927. It also gave a relative viability ([4]; first compound 8 µM) of 1.06.
Work on EMC-BAC-2 yielded a relative viability ([1]; first compound 0.08 µM) of 0.358, a relative viability ([1]; first compound 0.253 µM) of 0.388 and a relative viability ([1]; first compound 0.8 µM) of 0.308. For the same cell line, the relative viability ([1]; first compound 2.53 µM) was 0.348, the relative viability ([1]; first compound 8 µM) was 0.318 and the relative viability ([2]; first compound 0.08 µM) was 1.15. It also gave a relative viability ([2]; first compound 0.253 µM) of 0.996, a relative viability ([2]; first compound 0.8 µM) of 0.992 and a relative viability ([2]; first compound 2.53 µM) of 0.817. For the same cell line, the relative viability ([2]; first compound 8 µM) was 1.01, the relative viability ([3]; first compound 0.08 µM) was 1.11 and the relative viability ([3]; first compound 0.253 µM) was 0.99. The relative viability ([3]; first compound 0.8 µM) was 0.963, the relative viability ([3]; first compound 2.53 µM) was 0.944 and the relative viability ([3]; first compound 8 µM) was 0.958. It also gave a relative viability ([4]; first compound 0.08 µM) of 1.2, a relative viability ([4]; first compound 0.253 µM) of 1.28 and a relative viability ([4]; first compound 0.8 µM) of 1.15. It also gave a relative viability ([4]; first compound 2.53 µM) of 1.16 and a relative viability ([4]; first compound 8 µM) of 1.11.
EPLC-272H gave a relative viability ([1]; first compound 0.08 µM) of 0.419, a relative viability ([1]; first compound 0.253 µM) of 0.334 and a relative viability ([1]; first compound 0.8 µM) of 0.304. For the same cell line, the relative viability ([1]; first compound 2.53 µM) was 0.382, the relative viability ([1]; first compound 8 µM) was 0.357 and the relative viability ([2]; first compound 0.08 µM) was 0.39. The relative viability ([2]; first compound 0.253 µM) was 0.422, the relative viability ([2]; first compound 0.8 µM) was 0.297 and the relative viability ([2]; first compound 2.53 µM) was 0.471. It also gave a relative viability ([2]; first compound 8 µM) of 0.383, a relative viability ([3]; first compound 0.08 µM) of 0.654 and a relative viability ([3]; first compound 0.253 µM) of 0.776. It also gave a relative viability ([3]; first compound 0.8 µM) of 0.534, a relative viability ([3]; first compound 2.53 µM) of 0.681 and a relative viability ([3]; first compound 8 µM) of 0.51. It also gave a relative viability ([4]; first compound 0.08 µM) of 0.309, a relative viability ([4]; first compound 0.253 µM) of 0.363 and a relative viability ([4]; first compound 0.8 µM) of 0.239. It also gave a relative viability ([4]; first compound 2.53 µM) of 0.308 and a relative viability ([4]; first compound 8 µM) of 0.211.
In the case of H3255, the relative viability ([1]; first compound 0.08 µM) is reported as 0.342, the relative viability ([1]; first compound 0.253 µM) is reported as 0.337 and the relative viability ([1]; first compound 0.8 µM) is reported as 0.316. It also gave a relative viability ([1]; first compound 2.53 µM) of 0.381, a relative viability ([1]; first compound 8 µM) of 0.339 and a relative viability ([2]; first compound 0.08 µM) of 0.599. It also gave a relative viability ([2]; first compound 0.253 µM) of 0.605, a relative viability ([2]; first compound 2.53 µM) of 0.586 and a relative viability ([2]; first compound 8 µM) of 0.593. The relative viability ([3]; first compound 0.08 µM) was 0.857, the relative viability ([3]; first compound 0.253 µM) was 0.857 and the relative viability ([3]; first compound 0.8 µM) was 0.631. It also gave a relative viability ([3]; first compound 2.53 µM) of 1.04, a relative viability ([3]; first compound 8 µM) of 0.848 and a relative viability ([4]; first compound 0.08 µM) of 0.899. It also gave a relative viability ([4]; first compound 0.253 µM) of 0.894, a relative viability ([4]; first compound 0.8 µM) of 0.751 and a relative viability ([4]; first compound 2.53 µM) of 0.836. The relative viability ([4]; first compound 8 µM) was 0.998.
In the case of HARA, the relative viability ([1]; first compound 0.08 µM) is reported as 0.227, the relative viability ([1]; first compound 0.253 µM) is reported as 0.306 and the relative viability ([1]; first compound 0.8 µM) is reported as 0.231. For the same cell line, the relative viability ([1]; first compound 2.53 µM) was 0.258, the relative viability ([1]; first compound 8 µM) was 0.241 and the relative viability ([2]; first compound 0.08 µM) was 0.452. For the same cell line, the relative viability ([2]; first compound 0.253 µM) was 0.595, the relative viability ([2]; first compound 0.8 µM) was 0.537 and the relative viability ([2]; first compound 2.53 µM) was 0.554. It also gave a relative viability ([2]; first compound 8 µM) of 0.443, a relative viability ([3]; first compound 0.08 µM) of 0.398 and a relative viability ([3]; first compound 0.253 µM) of 1.02. The relative viability ([3]; first compound 0.8 µM) was 1.06, the relative viability ([3]; first compound 2.53 µM) was 0.867 and the relative viability ([3]; first compound 8 µM) was 0.79. For the same cell line, the relative viability ([4]; first compound 0.08 µM) was 0.867, the relative viability ([4]; first compound 0.253 µM) was 0.742 and the relative viability ([4]; first compound 0.8 µM) was 0.763. The relative viability ([4]; first compound 2.53 µM) was 0.747 and the relative viability ([4]; first compound 8 µM) was 0.656.
For HCC-15, the relative viability ([1]; first compound 0.08 µM) was 0.613, the relative viability ([1]; first compound 0.253 µM) was 0.602 and the relative viability ([1]; first compound 0.8 µM) was 0.652. For the same cell line, the relative viability ([1]; first compound 2.53 µM) was 0.643, the relative viability ([1]; first compound 8 µM) was 0.662 and the relative viability ([2]; first compound 0.08 µM) was 0.707. It also gave a relative viability ([2]; first compound 0.253 µM) of 0.636, a relative viability ([2]; first compound 0.8 µM) of 0.784 and a relative viability ([2]; first compound 2.53 µM) of 0.63. The relative viability ([2]; first compound 8 µM) was 0.617, the relative viability ([3]; first compound 0.08 µM) was 1.01 and the relative viability ([3]; first compound 0.253 µM) was 1.02. The relative viability ([3]; first compound 0.8 µM) was 1.1, the relative viability ([3]; first compound 2.53 µM) was 0.99 and the relative viability ([3]; first compound 8 µM) was 1. For the same cell line, the relative viability ([4]; first compound 0.08 µM) was 0.304, the relative viability ([4]; first compound 0.253 µM) was 0.205 and the relative viability ([4]; first compound 0.8 µM) was 0.181. It also gave a relative viability ([4]; first compound 2.53 µM) of 0.278 and a relative viability ([4]; first compound 8 µM) of 0.279.
For HCC-44, the relative viability ([2]; first compound 0.08 µM) was 0.989, the relative viability ([2]; first compound 0.253 µM) was 0.94 and the relative viability ([2]; first compound 0.8 µM) was 0.941. It also gave a relative viability ([2]; first compound 2.53 µM) of 0.919, a relative viability ([2]; first compound 8 µM) of 0.968 and a relative viability ([4]; first compound 0.08 µM) of 1.15. It also gave a relative viability ([4]; first compound 0.253 µM) of 0.761, a relative viability ([4]; first compound 0.8 µM) of 1.03 and a relative viability ([4]; first compound 2.53 µM) of 0.917. The relative viability ([4]; first compound 8 µM) was 0.991.
HCC-78 showed a relative viability ([1]; first compound 0.08 µM) of 0.329, a relative viability ([1]; first compound 0.253 µM) of 0.521 and a relative viability ([1]; first compound 0.8 µM) of 0.353. The relative viability ([1]; first compound 2.53 µM) was 0.366, the relative viability ([1]; first compound 8 µM) was 0.405 and the relative viability ([2]; first compound 0.08 µM) was 0.564. For the same cell line, the relative viability ([2]; first compound 0.253 µM) was 0.716, the relative viability ([2]; first compound 0.8 µM) was 0.766 and the relative viability ([2]; first compound 2.53 µM) was 0.681. The relative viability ([2]; first compound 8 µM) was 0.665, the relative viability ([3]; first compound 0.08 µM) was 0.564 and the relative viability ([3]; first compound 0.253 µM) was 0.582. The relative viability ([3]; first compound 0.8 µM) was 0.472, the relative viability ([3]; first compound 2.53 µM) was 0.61 and the relative viability ([3]; first compound 8 µM) was 0.547.
